Test results from US8580811B2 (Ligand Pharmaceuticals Incorporated, priority 2005, dated 2013).

Each molecule was assayed against T1, human AR (Homo sapiens, UniProt P10275) (assay: IR Binding Assay: whole cell competitive binding of test compounds against 3H-DHT in COS-1 cells transfected with pRShAR). Settings: not given.
T1 construct: expressed in transfected cells; host or cells: COS-1 cells
T1 sequence (P10275 1-920): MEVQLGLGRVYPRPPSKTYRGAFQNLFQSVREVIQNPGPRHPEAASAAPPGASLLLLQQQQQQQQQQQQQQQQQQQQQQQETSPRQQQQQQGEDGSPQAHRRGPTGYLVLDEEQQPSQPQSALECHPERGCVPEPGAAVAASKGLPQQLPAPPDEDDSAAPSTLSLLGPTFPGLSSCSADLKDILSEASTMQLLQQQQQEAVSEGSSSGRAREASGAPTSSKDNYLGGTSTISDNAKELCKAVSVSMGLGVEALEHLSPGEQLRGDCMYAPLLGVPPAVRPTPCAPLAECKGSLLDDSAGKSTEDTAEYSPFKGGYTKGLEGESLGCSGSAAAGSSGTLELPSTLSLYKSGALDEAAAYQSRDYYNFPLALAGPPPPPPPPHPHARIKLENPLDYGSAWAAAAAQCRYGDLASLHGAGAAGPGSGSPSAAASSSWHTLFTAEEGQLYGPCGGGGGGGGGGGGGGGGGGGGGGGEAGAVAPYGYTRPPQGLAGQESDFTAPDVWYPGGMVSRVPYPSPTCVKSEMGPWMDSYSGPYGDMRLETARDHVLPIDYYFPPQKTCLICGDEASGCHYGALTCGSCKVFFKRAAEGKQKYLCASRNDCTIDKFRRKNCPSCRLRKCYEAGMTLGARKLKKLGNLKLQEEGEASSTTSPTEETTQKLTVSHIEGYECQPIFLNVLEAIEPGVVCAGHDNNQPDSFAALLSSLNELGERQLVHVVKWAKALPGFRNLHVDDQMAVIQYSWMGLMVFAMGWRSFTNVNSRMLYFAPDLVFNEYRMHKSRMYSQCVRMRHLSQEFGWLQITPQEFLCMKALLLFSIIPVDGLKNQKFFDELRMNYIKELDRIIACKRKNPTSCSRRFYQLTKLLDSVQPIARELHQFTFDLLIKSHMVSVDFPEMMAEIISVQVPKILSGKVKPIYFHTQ
How it was run: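 COS-1 cells transfected with pRShAR plus β-Gal reporter, serum-starved 24 h, then exposed to 1 nM ³H-DHT with compounds at 10^−10 to 10^−6 M for 3 h at 37 °C. Bound ³H-DHT counted in lysates, normalized to β-Gal. IC50 from log-logit plot; Ki via Cheng-Prusoff using Kd from Scatchard saturation analysis.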

Structure (SMILES)	Ki [nM]
Cc1c(C)n(CCO)c2ccc3[nH]c(=O)cc(C(F)(F)F)c3c12 [Compound 240, 1,2-Dimethyl-3-(2-hydroxyethyl)-9-trifluoromethyl-3,6-dihydro-pyrrolo[3,2-f]quinolin-7-one]	> 10
CC(=O)OCCn1c(C)c(C)c2c3c(C(F)(F)F)cc(=O)[nH]c3ccc21 [Compound 241, 3-(2-Acetoxyethyl)-1,2-Dimethyl-9-trifluoromethyl-3,6-dihydro-pyrrolo[3,2-f]quinolin-7-one]	5 to 10
C#CCn1c(C)c(C)c2c3c(C(F)(F)F)cc(=O)[nH]c3ccc21 [Compound 242, 1,2-Dimethyl-3-(prop-2-ynyl)-9-trifluoromethyl-3,6-dihydro-pyrrolo[3,2-f]quinolin-7-one]	< 5
Cc1c(C)n(C[C@@H](O)C(F)(F)F)c2ccc3[nH]c(=O)cc(C(F)(F)F)c3c12 [Compound 244, (+)-1,2-Dimethyl-3-(3,3,3-trifluoro-2-hydroxy-propyl)-9-trifluoromethyl-3,6-dihydro-pyrrolo[3,2-f]-quinolin-7-one]	> 10
Cc1c(C)n(C[C@H](O)C(F)(F)F)c2ccc3[nH]c(=O)cc(C(F)(F)F)c3c12 [Compound 245, (−)-1,2-Dimethyl-3-(3,3,3-trifluoro-2-hydroxy-propyl)-9-trifluoromethyl-3,6-dihydro-pyrrolo[3,2-f]-quinolin-7-one]	> 10
Cc1c(C)n(CCCF)c2ccc3[nH]c(=O)cc(C(F)(F)F)c3c12 [Compound 248, 1,2-Dimethyl-3-(3-fluoropropyl)-9-trifluoromethyl-3,6-dihydro-pyrrolo[3,2-f]quinolin-7-one]	< 5
Cc1c(C)n(CCCO)c2ccc3[nH]c(=O)cc(C(F)(F)F)c3c12 [Compound 249, 1,2-Dimethyl-3-(3-hydroxypropyl)-9-trifluoromethyl-3,6-dihydro-pyrrolo[3,2-f]quinolin-7-one]	< 5
CC(=O)OCCCn1c(C)c(C)c2c3c(C(F)(F)F)cc(=O)[nH]c3ccc21 [Compound 250, 3-(3-Acetoxypropyl)-1,2-dimethyl-9-trifluoromethyl-3,6-dihydro-pyrrolo[3,2-f]quinolin-7-one]	< 5
Cc1c(-c2cccc(F)c2)n(CC(F)(F)F)c2ccc3[nH]c(=O)cc(Cl)c3c12 [Compound 251, 9-Chloro-2-(3-fluorophenyl)-1-methyl-3-(2,2,2-trifluoroethyl)-3,6-dihydro-pyrrolo[3,2-f]-quinolin-7-one]	< 5
Cc1c(-c2nccs2)n(CC(F)(F)F)c2ccc3[nH]c(=O)cc(Cl)c3c12 [Compound 252, 9-Chloro-1-methyl-2-(1,3-thiazol-2-yl)-3-(2,2,2-trifluoroethyl)-3,6-dihydro-pyrrolo[3,2-f]-quinolin-7-one]	< 5
Cc1c(-c2cccnc2)n(CC(F)(F)F)c2ccc3[nH]c(=O)cc(Cl)c3c12 [Compound 253, 9-Chloro-1-methyl-2-(3-pyridyl)-3-(2,2,2-trifluoroethyl)-3,6-dihydro-pyrrolo[3,2-f]-quinolin-7-one]	> 10
Cc1c(C(F)(F)C(F)(F)F)n(CC(F)(F)F)c2ccc3[nH]c(=O)cc(Cl)c3c12 [Compound 255, 9-Chloro-1-methyl-2-(pentafluoroethyl)-3-(2,2,2-trifluoroethyl)-3,6-dihydro-pyrrolo[3,2-f]-quinolin-7-one]	< 5
Cc1c(-c2ncco2)n(CC(F)(F)F)c2ccc3[nH]c(=O)cc(Cl)c3c12 [Compound 257, 9-Chloro-1-methyl-2-(2-oxazolyl)-3-(2,2,2-trifluoroethyl)-3,6-dihydro-pyrrolo[3,2-f]-quinolin-7-one]	< 5
Cc1ccc(-c2c(C)c3c4c(Cl)cc(=O)[nH]c4ccc3n2CC(F)(F)F)s1 [Compound 258, 9-Chloro-1-methyl-2-(5-methyl-2-thiophenyl)-3-(2,2,2-trifluoroethyl)-3,6-dihydro-pyrrolo[3,2-f]quinolin-7-one]	< 5
Cc1c(-c2cccs2)n(CC(F)(F)C(F)(F)F)c2ccc3[nH]c(=O)cc(Cl)c3c12 [Compound 259, 9-Chloro-1-methyl-3-(2,2,3,3,3-pentafluoropropyl)-2-thiophen-2-yl-3,6-dihydro-pyrrolo[3,2-f]quinolin-7-one]	> 10
Cc1c(C(F)(F)F)n(CC(F)(F)C(F)(F)F)c2ccc3[nH]c(=O)cc(Cl)c3c12 [Compound 260, 9-Chloro-1-methyl-3-(2,2,3,3,3-pentafluoropropyl)-2-(trifluoromethyl)-3,6-dihydro-pyrrolo[3,2-f]quinolin-7-one]	> 10
Cc1c(-c2ccco2)n(CC(F)(F)C(F)(F)F)c2ccc3[nH]c(=O)cc(Cl)c3c12 [Compound 261, 9-Chloro-1-methyl-2-(2-furyl)-3-(2,2,3,3,3-pentafluoropropyl)-3,6-dihydro-pyrrolo[3,2-f]quinolin-7-one]	< 5
Cc1c(-c2nccs2)n(CC(F)(F)C(F)(F)F)c2ccc3[nH]c(=O)cc(Cl)c3c12 [Compound 262, 9-Chloro-1-methyl-3-(2,2,3,3,3-pentafluoropropyl)-2-(1,3-thiazol-2-yl)-3,6-dihydro-pyrrolo[3,2-f]quinolin-7-one]	5 to 10
Cc1c(-c2ccncc2)n(CC(F)(F)C(F)(F)F)c2ccc3[nH]c(=O)cc(Cl)c3c12 [Compound 263, 9-Chloro-1-methyl-3-(2,2,3,3,3-pentafluoropropyl)-2-(4-pyridyl)-3,6-dihydro-pyrrolo[3,2-f]quinolin-7-one]	< 5
Cc1c(-c2cccnc2)n(CC(F)(F)C(F)(F)F)c2ccc3[nH]c(=O)cc(Cl)c3c12 [Compound 264, 9-Chloro-1-methyl-3-(2,2,3,3,3-pentafluoropropyl)-2-(3-pyridyl)-3,6-dihydro-pyrrolo[3,2-f]quinolin-7-one]	< 5
Cc1c(-c2ccccn2)n(CC(F)(F)C(F)(F)F)c2ccc3[nH]c(=O)cc(Cl)c3c12 [Compound 265, 9-Chloro-1-methyl-3-(2,2,3,3,3-pentafluoropropyl)-2-(2-pyridyl)-3,6-dihydro-pyrrolo[3,2-f]quinolin-7-one]	< 5
Cc1c(-c2ncco2)n(CC(F)(F)C(F)(F)F)c2ccc3[nH]c(=O)cc(Cl)c3c12 [Compound 266, 9-Chloro-1-methyl-2-(oxazol-2-yl)-3-(2,2,3,3,3-pentafluoropropyl)-3,6-dihydro-pyrrolo[3,2-f]quinolin-7-one]	< 5
Cc1ccc(-c2c(C)c3c4c(Cl)cc(=O)[nH]c4ccc3n2CC(F)(F)C(F)(F)F)o1 [Compound 267, 9-Chloro-1-methyl-2-(5-methylfuran-2-yl)-3-(2,2,3,3,3-pentafluoropropyl)-3,6-dihydro-pyrrolo[3,2-f]quinolin-7-one]	5 to 10
Cc1ccc(-c2c(C)c3c4c(Cl)cc(=O)[nH]c4ccc3n2CC(F)(F)C(F)(F)F)s1 [Compound 268, 9-Chloro-1-methyl-2-(5-methylthiophen-2-yl)-3-(2,2,3,3,3-pentafluoropropyl)-3,6-dihydro-pyrrolo[3,2-f]quinolin-7-one]	< 5
Cc1c(CCCCl)c2c3c(Cl)cc(=O)[nH]c3ccc2n1CC(F)(F)C(F)(F)F [Compound 269, 9-Chloro-1-(3-chloropropyl)-2-methyl-3-(2,2,3,3,3-pentafluoropropyl)-3,6-dihydro-pyrrolo[3,2-f]quinolin-7-one]	> 10
Cc1c(CCCI)c2c3c(Cl)cc(=O)[nH]c3ccc2n1CC(F)(F)C(F)(F)F [Compound 270, 9-Chloro-1-(3-iodopropyl)-2-methyl-3-(2,2,3,3,3-pentafluoropropyl)-3,6-dihydro-pyrrolo[3,2-f]quinolin-7-one]	> 10
Cc1c(-c2ccccc2)n(C[C@H](O)C(F)(F)F)c2ccc3[nH]c(=O)cc(Cl)c3c12 [Compound 271, (S)-9-Chloro-1-methyl-2-phenyl-3-(3,3,3-trifluoro-2-hydroxy-propyl)-3,6-dihydro-pyrrolo[3,2-f]quinolin-7-one]	< 5

Same assay, conditions: competition with 1 nM 3H-DHT, transfected COS-1 cells, 3 h at 37° C., Cheng-Prusoff from IC50; read-out: Ki

Structure (SMILES)	Ki [nM]
Cc1c(-c2ccncc2)n(CC(F)(F)F)c2ccc3[nH]c(=O)cc(Cl)c3c12 [Compound 254, 9-Chloro-1-methyl-2-(4-pyridyl)-3-(2,2,2-trifluoroethyl)-3,6-dihydro-pyrrolo[3,2-f]-quinolin-7-one]	> 10
Cc1ccc(-c2c(C)c3c4c(Cl)cc(=O)[nH]c4ccc3n2CC(F)(F)F)o1 [Compound 256, 9-Chloro-1-methyl-2-(5-methyl-2-furyl)-3-(2,2,2-trifluoroethyl)-3,6-dihydro-pyrrolo[3,2-f]-quinolin-7-one]	< 5
